Assay results as given in patent US20180290961A1, “METHOD AND SYSTEM FOR OBTAINING A CARBOXYLIC ACID WHICH IS PRODUCED IN A FERMENTATION PROCESS” (THYSSENKRUPP INDUSTRIAL SOLUTIONS AG, priority 2015, published 2018).

Legend:
physchem = conditions: 20 °C, water
[1] = precipitation of fermentatively prepared carboxylic acid after acidification; assay type: physicochemical
Excerpt: The invention is based on the observation that sparingly soluble carboxylic acids such as fumaric acid and adipic acid cannot be worked up satisfactorily using the known purification methods. […] In order to compensate for the resulting loss of product, alternative purification methods are necessary.

Row | solubility (physchem) | concentration above which the acid precipitates after acidification [1] | Structure (SMILES)
1 | ≤ 15 mg/mL |  | O=C(O)c1ccccc1O [salicylic acid]
2 | ≤ 50 mg/mL |  | CC(C)C[C@H](N)C(=O)O [leucine]
3 | ≤ 50 mg/mL |  | CSCC[C@H](N)C(=O)O [methionine]
4 | ≤ 50 mg/mL |  | N[C@@H](Cc1ccccc1)C(=O)O [phenylalanine]

Further lines, the compound ahead of its results:

Row | Structure (SMILES) | solubility (physchem) | concentration above which the acid precipitates after acidification [1]
5 | O=C(O)/C=C/C(=O)O [fumaric acid] | ≤ 15 mg/mL | about 5 g/l
6 | N[C@@H](Cc1c[nH]cn1)C(=O)O [histidine] | ≤ 50 mg/mL | 
7 | CC[C@H](C)[C@H](N)C(=O)O [isoleucine] | ≤ 50 mg/mL | 
